Experimental data taken from patent US20110230424A1, “OPHTHALMIC SOLUTIONS, INCLUDING CONTACT LENS CARE AND EYE DROPS COMPRISING CARNOSINE, PREFERABLY IN COMBINATION WITH DEXPANTHENOL AND/OR HYALURONIC ACID” (priority 2008, published 2011).

Key:
[1] = phonophoresis or subconjunctival injection, cited from earlier work
[2] = Stability of carnosine in contact lens care solution; type: physicochemical; conditions: under circumstances; carnosine utilized by bacteria and/or fungi in the solution

Structure (SMILES) | time within which carnosine accumulates in the aqueous humour after topical administration ([1]; 1% N-acetylcarnosine added to the eye) [min] | effectiveness of carnosine administration in itself to the eye ([1]; quickly metabolised by carnosinase in the eye) | stability of carnosine present in the contact lens care solution [2]
CC(=O)NCCC(=O)N[C@@H](Cc1cnc[nH]1)C(=O)O [N-acetylcarnosine, reference compound] | 15 to 30 |  | 
NCCC(=O)N[C@@H](Cc1cnc[nH]1)C(=O)O [carnosine, (2S)-2-[(3-Amino-1-oxopropyl)amino]-3-(3H-imidazol-4-yl)propanoic acid] |  | ineffective | less stable than expected
